Experimental data reported in US9428504B2, “7-hydroxy-spiropipiperidine indolinyl antagonists of P2Y1 receptor” (BRISTOL-MYERS SQUIBB COMPANY, priority 2012, dated 2016).
Structures can show the parent of a compound that is named as a salt. Where two headings read alike, the source gives them in different places.

Legend:
[1] = test system: human platelet rich plasma (PRP); assay: ADP induced platelet aggregation assay; settings: Homo sapiens, Platelet, read-out: PA IC50 (μM) @ 10 μM ADP, platelet aggregation induced by 10 μM ADP, human PRP
[2] = biological target: cloned human P2Y1 receptors (Homo sapiens (Human), UniProt P47900); assay: Binding Assay B: Scintillation Proximity Assay (SPA) for P2Y1 binding
Chain of cloned human P2Y1 receptors (P47900 whole entry): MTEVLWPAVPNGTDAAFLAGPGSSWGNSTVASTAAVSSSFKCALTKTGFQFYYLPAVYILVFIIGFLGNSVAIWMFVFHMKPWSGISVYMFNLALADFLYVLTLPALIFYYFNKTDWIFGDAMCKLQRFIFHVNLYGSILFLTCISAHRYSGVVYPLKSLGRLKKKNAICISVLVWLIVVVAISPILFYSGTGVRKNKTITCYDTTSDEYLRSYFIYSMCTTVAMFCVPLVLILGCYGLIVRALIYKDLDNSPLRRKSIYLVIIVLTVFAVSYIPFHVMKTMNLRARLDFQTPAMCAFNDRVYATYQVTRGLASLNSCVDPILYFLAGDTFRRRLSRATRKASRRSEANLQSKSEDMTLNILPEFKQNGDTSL
Procedure, shortened: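 Membranes with ~15 fmol receptor (1.7 μg total protein) incubated with 0.3 nM [^33P]-labelled radioligand for 1 h at room temperature to completion. After centrifugation and removal of aqueous phase, bound radioactivity read by scintillation proximity; inhibition of radioligand binding measured.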

[3] = SPA, [33P] 2MeS-ADP displacement, read-out: P2Y1 Ki (nM) using binding assay B

| SMILES | IC50 [1] [µM] | Ki [2, 3] [nM] | Ki [2] [nM] |
| --- | --- | --- | --- |
| CN(C)S(=O)(=O)c1ccc(O)c2c1C1(CCN(CC(C)(C)C)CC1)CN2c1ccccc1NC(=O)Nc1ccc(OC(F)(F)F)cc1 [Example 89, 7-Hydroxy-N,N-dimethyl-1′-neopentyl-1-(2-(3-(4-(trifluoromethoxy)phenyl)ureido)phenyl)spiro[indoline-3,4′-piperidine]-4-sulfonamide] | 0.4 | 5.3 | – |
| CCN(CC)S(=O)(=O)c1ccc(O)c2c1C1(CCN(CC(C)(C)C)CC1)CN2c1ccccc1NC(=O)Nc1ccc(C(C)(C)C)cc1 [Example 90, 1-(2-(3-(4-tert-Butylphenyl)ureido)phenyl)-N,N-diethyl-7-hydroxy-1′-neopentylspiro [indoline-3,4′-piperidine]-4-sulfonamide, trifluoroacetic acid salt] | 0.2 | 3.5 | – |
| CCN(CC)S(=O)(=O)c1ccc(O)c2c1C1(CCN(CC(C)(C)C)CC1)CN2c1ccccc1NC(=O)Nc1ccc(OC(F)(F)F)cc1 [Example 91, N,N-Diethyl-7-hydroxy-1′-neopentyl-1-(2-(3-(4-(trifluoromethoxy)phenyl)ureido)phenyl)spiro [indoline-3,4′-piperidine]-4-sulfonamide trifluoroacetic acid salt] | 0.3 | 3.4 | – |
| CCN(CC)S(=O)(=O)c1ccc(O)c2c1C1(CCN(CC(C)(C)C)CC1)CN2c1ccccc1NC(=O)Nc1nc2ccc(Cl)cc2s1 [Example 92, 1-(2-(3-(6-Chlorobenzo[d]thiazol-2-yl)ureido)phenyl)-N,N-diethyl-7-hydroxy-1′-neopentylspiro[indoline-3,4′-piperidine]-4-sulfonamide] | 0.5 | 15.8 | – |
| CC(C)(C)CN1CCC2(CC1)CN(c1ccccc1NC(=O)Nc1nc3ccc(F)cc3s1)c1c(O)cc(F)c(Cl)c12 [Example 93, 1-(2-(4-Chloro-5-fluoro-7-hydroxy-1′-neopentylspiro [indoline-3,4′-piperidine]-1-yl)phenyl)-3-(6-fluorobenzo[d]thiazol-2-yl)urea] | 0.5 | 13.5 | – |
| CC(C)(C)CN1CCC2(CC1)CN(c1ccccc1NC(=O)Nc1nc3ccc(F)cc3s1)c1c(O)cc(F)c(F)c12 [Example 95, 1-(2-(4,5-Difluoro-7-hydroxy-1′-neopentylspiro [indoline-3,4′-piperidine]-1-yl)phenyl)-3-(6-fluorobenzo[d]thiazol-2-yl)urea] | 0.5 | 14.7 | – |
| CC(C)(C)CN1CCC2(CC1)CN(c1ccccc1NC(=O)Nc1nc3ccc(Cl)cc3s1)c1c(O)cc(F)c(F)c12 [Example 96, l-(6-Chlorobenzo[d]thiazol-2-yl)-3-(2-(4,5-difluoro-7-hydroxy-1′-neopentylspiro[indoline-3,4′-piperidine]-1-yl)phenyl)urea] | 0.3 | 25.8 | – |
| Cc1ccc2nc(NC(=O)Nc3ccccc3N3CC4(CCN(CC(C)(C)C)CC4)c4c(Cl)c(F)cc(O)c43)sc2c1 [Example 97, 1-(2-(4-Chloro-5-fluoro-7-hydroxy-1′-neopentylspiro [indoline-3,4′-piperidine]-1-yl)phenyl)-3-(6-melhylbenzo [d]thiazol-2-yl)urea] | 0.7 | 11.5 | – |
| CC(C)(C)CN1CCC2(CC1)CN(c1ccccc1NC(=O)Nc1nc3ccc(Cl)cc3s1)c1c(O)c(F)cc(Cl)c12 [Example 98, 1-(2-(4-Chloro-6-fluoro-7-hydroxy-1′-neopentylspiro [indoline-3,4′-piperidine]-1-yl)phenyl)-3-(6-chlorobenzo [d]thiazol-2-yl)urea] | 0.9 | 12.8 | – |
| CC(C)CN1CCCC1c1ccc(NC(=O)Nc2ccccc2N2CC3(CCN(CC(C)(C)C)CC3)c3c(F)cc(F)c(O)c32)cc1 (centres unmarked) [Example 99, 1-(2-(4,6-Difluoro-7-hydroxy-1′-neopentylspiro [indoline-3,4′-piperidine]-1-yl)phenyl)-3-(4-(1-isobutylpyrrolidin-2-yl)phenyl)urea] | 1.7 | – | 14.2 |
